In patent publication US20240325419A1, “PHARMACEUTICAL COMPOSITION FOR RESTORING PHYSIOLOGICAL PROCESSES AND CELLS OF ORGANISM” (priority 2022, published 2024):
Entries after “also recorded” stand apart in the source; their conditions may differ.

Legend:
human tumour cell lines = experiment: Cytotoxicity and cytomorphology of test substances, conclusions (cell line not given); conditions: Doxorubicin 0.2 mg/ml; HPBCD 5 mg/ml
[1] = tested on: HT-1080 human fibrosarcoma cell line; experiment: Cytotoxicity on the cells culture HT1080; type: cell-based; conditions: TiO2 or SiO2 600 mcg/ml, cyclodextrin 5000 mcg/ml, Doxorubicin 200 mcg/ml
Protocol: In these studies cells (5×10^4) were seeded in 6-well plates and cultured in RPMI-1640 medium containing 10% fetal bovine serum. The cultures were incubated for 2 hours in CO2 thermostate at 37° C. After the preincubation period the medium was removed, the cells were washed with physiological saline (2×1 ml 0.9% NaCl) and exposed to testing samples applying various concentrations for 60 min. After removing the test compounds fresh RPMI 1640 medium containing 10% FBS was added and the cultures were incubated for further 24 hours at 37° C. in humidified thermostate (5% CO2). At the end of the posttreatment period the medium as supernatants of the cultures, containing released cells was removed and saved for cell counting.

Caenorhabditis elegans = experiment: Life duration of Caenorhabditis elegans on NGM plates; type: in vivo
Protocol: ADAM QD/T, TiO2 aqueous nanodispersion used for researches on the animals, was sterile nanodispersion, of pharmaceutical class, in concentration 0.6 mg/ml. • 2. […] SBECD, Sulfobutylated beta-cyclodextrin sodium salt, Budapest, Hungary DEXOLVE® pharma grade (DS 6.5), powder in concentration 0.3 mg/ml. Protocol of researches and step-by-step methodology: • embryos were isolated (synchronization) • larvae of identical phase (L4) were placed on the standard NGM (nematode growth medium) […] plates in the Petri dishes. • all the animals were in the age from first up to ninth day of life and lived in a medium containing the above-listed components, after ninth day they were placed in standard […] without other additions as FUDR. • deaths of the animals were constantly registered as a time function • the curves of life duration were created on the basis of read indications. Composition of NGM plates (all the chemical compounds and reagents of analytical class); NaCl, agar, peptone, 5 mg/ml cholesterol in ethanol, non-autoclaved, 1 M K3PO4 buffer pH 6.0 (108.3 g KH2PO4, 35.6 g K2HPO4, H2O for 1 liter), 1M MgSO4, Petri dishes, peristaltic pump. The results present average of three parallel, independent definitions, research cycles of C. elegans.

| Compound | Cytotoxicity (human tumour cell lines) | Cytotoxicity [1] | Number of living C. elegans (%) (Caenorhabditis elegans; life duration 10 days) | Number of living C. elegans (%) (Caenorhabditis elegans; life duration 13 days) | Number of living C. elegans (%) (Caenorhabditis elegans; life duration 14 days) | Number of living C. elegans (%) (Caenorhabditis elegans; life duration 15 days) | Number of living C. elegans (%) (Caenorhabditis elegans; life duration 18 days) |
| --- | --- | --- | --- | --- | --- | --- | --- |
| COc1cccc2c1C(=O)c1c(O)c3c(c(O)c1C2=O)C[C@@](O)(C(=O)CO)C[C@@H]3O[C@H]1C[C@H](N)[C@H](O)[C@H](C)O1 [Doxorubicin] | moderate cytotoxicity | evident cytotoxicity; also recorded: significant cytotoxicity | – | – | – | – | – |
| Sulfobutylated beta-cyclodextrin sodium salt [SBECD] | – | – | 90% | 41% | 20% | 7% | 0% |
